The term IC50 denotes the concentration that gives 50% inhibition.

For assay [1], the target named is HCV NS3-4A serine protease (full-length NS3-4A protein) (Hepatitis C virus genotype 1a (isolate 1) (HCV), UniProt P26664). In words: HCV NS3-4A protease assay. In kind it is biochemical, HCV genotype 1a. The note with it: genotype 1a strain HCV-1, fluorogenic peptide substrate, read-out: Protease assay Ex. 12 IC50. How it is done: The inhibitory activity of certain compounds of Table A against HCV NS3-4A serine protease is determined in a homogenous assay using the full-length NS3-4A protein (genotype 1a, strain HCV-1) and a commercially available internally-quenched fluorogenic peptide substrate as described by Taliani, M., et al. 1996 Anal. Biochem. 240:60-67, which is incorporated by reference in its entirety.

Another assay relates to HCV. To be noted: ribavirin alone; cited from earlier work.

HCV NS3-4A serine protease (full-length NS3-4A protein), sequence (P26664 1027-1657): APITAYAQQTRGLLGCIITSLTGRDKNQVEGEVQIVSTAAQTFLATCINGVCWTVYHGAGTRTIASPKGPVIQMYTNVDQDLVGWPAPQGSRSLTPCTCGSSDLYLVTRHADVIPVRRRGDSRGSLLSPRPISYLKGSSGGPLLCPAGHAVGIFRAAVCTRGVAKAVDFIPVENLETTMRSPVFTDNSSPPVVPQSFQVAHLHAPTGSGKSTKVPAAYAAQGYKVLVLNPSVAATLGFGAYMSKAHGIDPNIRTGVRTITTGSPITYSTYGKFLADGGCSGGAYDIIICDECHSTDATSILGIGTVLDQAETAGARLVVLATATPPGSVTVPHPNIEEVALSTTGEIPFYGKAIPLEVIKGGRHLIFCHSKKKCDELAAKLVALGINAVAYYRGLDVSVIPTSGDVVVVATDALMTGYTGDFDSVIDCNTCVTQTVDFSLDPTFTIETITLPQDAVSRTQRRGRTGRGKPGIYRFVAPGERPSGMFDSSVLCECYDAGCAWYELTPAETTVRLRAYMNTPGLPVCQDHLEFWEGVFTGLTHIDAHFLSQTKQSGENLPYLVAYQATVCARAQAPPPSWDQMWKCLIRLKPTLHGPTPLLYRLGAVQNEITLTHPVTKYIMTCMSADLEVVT
HCV NS3-4A serine protease (full-length NS3-4A protein), sequence (P26664 1658-1711 partner): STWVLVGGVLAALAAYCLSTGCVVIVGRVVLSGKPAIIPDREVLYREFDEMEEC

On to `[2H]C([2H])([2H])C([2H])(N1CCCC[C@H]1C(=O)NC(C(=O)N[C@H](C(=O)N1C[C@]2(C[C@H]1C(=O)N[C@]1(C(=O)NS(=O)(=O)N3CCCC3)C[C@H]1C=C)C(C)(C)C21CCC1)C(C)(C)C)C1CCCCC1)C([2H])([2H])[2H]` (some centres unmarked) [Compound 145], for which the IC50 in assay [1] came out at 5.9 nM.
Still for that read-out and setting: with `C=C[C@@H]1C[C@]1(NC(=O)[C@@H]1C[C@@]2(CN1C(=O)[C@@H](NC(=O)[C@@H](NC(=O)[C@@H]1Cc3[nH]cnc3CN1)C(C)(C)C)C(C)(C)C)C(C)(C)C21CCC1)C(=O)NS(=O)(=O)N1CCCC1` [Example 29, (5R,8S)-7-[(2S)-2-{[(2S)-3,3-dimethyl-2-{[(6S)-4,5,6,7-tetrahydro-1H-imidazo[4,5-c]pyridin-6-ylcarbonyl]amino}butanoyl]amino}-3,3-dimethylbutanoyl]-10,10-dimethyl-N-{(1 R,2S)-1-[(pyrrolidin-1-ylsulfonyl)carbamoyl]-2-vinylcyclopropyl}-7-azadispiro[3.0.4.1]decane-8-carboxamide] the figure was 40 nM; with `C=C[C@@H]1C[C@]1(NC(=O)[C@@H]1C[C@@]2(CN1C(=O)[C@@H](NC(=O)[C@@H](NC(=O)[C@@H]1CCCCN1C(C)C)C1CCCCC1)C1CCCC1)C(C)(C)C21CCC1)C(=O)NS(=O)(=O)N1CCCC1` [Example 66, (5R,8S)-7-[(2S)-2-{[(2S)-2-cyclohexyl-2-({[(2S)-1-isopropylpiperidin-2-yl]carbonyl}amino)acetyl]amino}-2-cyclopentylacetyl]-10,10-dimethyl-N-{(1R,2S)-1-[(pyrrolidin-1-ylsulfonyl)carbamoyl]-2-vinylcyclopropyl}-7-azadispiro[3.0.4.1]decane-8-carboxamide], 5.5 nM.
For the compound `NC(=O)c1ncn([C@@H]2O[C@H](CO)[C@@H](O)[C@H]2O)n1` [Ribavirin, ribavirin], in the assay with HCV, the “effect on serum levels of HCV-RNA” value is on record as “does not lower serum levels of HCV-RNA” and the “patients with serum amino transferase levels reduced to normal” value was 40 % of patients.
